Data on 19 compounds can be found in patent publication EP2298778A1, “IMIDAZOTHIAZOLE DERIVATIVE HAVING 4,7-DIAZASPIROÝ2.5¨OCTANE RING STRUCTURE” (Daiichi Sankyo Company, Limited, priority 2008, dated 2009).

Bounds are passed on as bounds.

The data set in a line: Metabolic stability test (microsomal metabolism test). The class given is in vitro ADME. The note with it: pH 7.4; human-derived liver microsomes, test compound remaining after addition of NADP+ and incubation at 37°C for 30 minutes; read-out: metabolic stability of T/C%. The method, then:
(Test Example 3 Metabolic stability test) 100 µL of 100 mM phosphate buffer solution (pH 7.4) containing 3 µM test compound was added to 100 µL of reaction solution containing 100 mM phosphate buffer solution (pH 7.4), 30 mM glucose 6-phosphate, 10 mM MgCl2·6H2O, 3 units/mL glucose 6-phosphate 1-dehydrogenase, and 0.3 to 1.5 mgP/mL human liver microsomes and the mixture was incubated at 37°C for 20 minutes. Then, 70 µL of 100 mM phosphate buffer solution (pH 7.4) containing 3 mM NADP^+ was added and the mixture was incubated at 37°C for 30 minutes to conduct a microsomal metabolism test. The metabolic stability was calculated according to the following formula: T/C (%) = ((concentration of test compound after addition of NADP)^+and incubation for30minutes)/((concentration of test compound before addition of NADP)^+) × 100. [formula] […]
In general terms: Liver microsomes are a subcellular fraction often used to study metabolism.

Regarding `CC(C)C1=C(C(=O)N2[C@H](C)CC[C@H]2C(=O)N2CCNC3(CC3)C2)SC2=N[C@@](C)(c3ccc(Cl)cc3)[C@@H](c3ccc(Cl)cc3)N21` [Example 1, 7-[(5R)-1-{[(5R,6S)-5,6-bis(4-chlorophenyl)-3-isopropyl-6-methyl-5,6-dihydroimidazo[2,1-b][1,3]thiazol-2-yl]carbonyl}-5-methyl-L-prolyl]-4,7-diazaspiro[2.5]octane], the remaining at 0.5 h was at least 50%. Under `CC(C)C1=C(C(=O)N2[C@H](C)CC[C@H]2C(=O)N2CCN(C)C3(CC3)C2)SC2=N[C@@](C)(c3ccc(Cl)cc3)[C@@H](c3ccc(Cl)cc3)N21` [Example 2, 7-[(5R)-1-{[(5R,6S)-5,6-bis(4-chlorophenyl)-3-isopropyl-6-methyl-5,6-dihydroimidazo[2,1-b][1,3]thiazol-2-yl]carbonyl}-5-methyl-L-prolyl]-4-methyl-4,7-diazaspiro[2.5]octane] stands at least 50%. On to `CC(C)C1=C(C(=O)N2[C@H](C)CC[C@H]2C(=O)N2CCN(CCO)C3(CC3)C2)SC2=N[C@@](C)(c3ccc(Cl)cc3)[C@@H](c3ccc(Cl)cc3)N21` [Example 3, 2-{7-[(5R)-1-{[(5R,6S)-5,6-bis(4-chlorophenyl)-3-isopropyl-6-methyl-5,6-dihydroimidazo[2,1-b][1,3]thiazol-2-yl]carbonyl}-5-methyl-L-prolyl]-4,7-diazaspiro[2.5]oct-4-yl}ethanol], for which the remaining at 0.5 h is at least 50%. Take `CC(C)C1=C(C(=O)N2[C@H](C)CC[C@H]2C(=O)N2CCNC3(CC3)C2)SC2=N[C@@](C)(c3ccc(Cl)cc3)[C@@H](c3ccc(Cl)c(F)c3)N21` [Example 5, 7-[(5R)-1-{[(5R,6S)-5-(4-chloro-3-fluorophenyl)-6-(4-chlorophenyl)-3-isopropyl-6-methyl-5,6-dihydroimidazo[2,1-b][1,3]thiazol-2-yl]carbonyl}-5-methyl-L-prolyl]-4,7-diazaspiro[2.5]octane]: the remaining at 0.5 h was at least 50%. As for `CC(C)C1=C(C(=O)N2[C@H](C)CC[C@H]2C(=O)N2CCN(C)C3(CC3)C2)SC2=N[C@@](C)(c3ccc(Cl)cc3)[C@@H](c3ccc(Cl)c(F)c3)N21` [Example 6, 7-[(5R)-1-{[(5R,6S)-5-(4-chloro-3-fluorophenyl)-6-(4-chlorophenyl)-3-isopropyl-6-methyl-5,6-dihydroimidazo[2,1-b][1,3]thiazol-2-yl]carbonyl}-5-methyl-L-prolyl]-4-methyl-4,7-diazaspiro[2.5]octane], the remaining at 0.5 h was at least 50%. Then `CC(C)C1=C(C(=O)N2[C@H](C)CC[C@H]2C(=O)N2CCN(CCO)C3(CC3)C2)SC2=N[C@@](C)(c3ccc(Cl)cc3)[C@@H](c3ccc(Cl)c(F)c3)N21` [Example 7, 2-{7-[(5R)-1-{[(5R,6S)-5-(4-chloro-3-fluorophenyl)-6-(4-chlorophenyl)-3-isopropyl-6-methyl-5,6-dihydroimidazo[2,1-b][1,3]thiazol-2-yl]carbonyl}-5-methyl-L-prolyl]-4,7-diazaspiro[2.5]oct-4-yl}ethanol], with at least 50%; and `CC(C)C1=C(C(=O)N2[C@H](C)CC[C@H]2C(=O)N2CCNC3(CC3)C2)SC2=N[C@@](C)(c3ccc(Cl)nc3)[C@@H](c3ccc(Cl)cc3)N21` [Example 8, 7-[(5R)-1-{[(5R,6S)-5-(4-chlorophenyl)-6-(6-chloropyridin-3-yl)-3-isopropyl-6-methyl-5,6-dihydroimidazo[2,1-b][1,3]thiazol-2-yl]carbonyl}-5-methyl-L-prolyl]-4,7-diazaspiro[2.5]octane], with at least 50%; and `CC(C)C1=C(C(=O)N2[C@H](C)CC[C@H]2C(=O)N2CCN(C)C3(CC3)C2)SC2=N[C@@](C)(c3ccc(Cl)nc3)[C@@H](c3ccc(Cl)cc3)N21` [Example 9, 7-[(5R)-1-{[(5R,6S)-5-(4-chlorophenyl)-6-(6-chloropyridin-3-yl)-3-isopropyl-6-methyl-5,6-dihydroimidazo[2,1-b][1,3]thiazol-2-yl]carbonyl}-5-methyl-L-prolyl]-4-methyl-4,7-diazaspiro[2.5]octane], with at least 50%. Under `CC(C)C1=C(C(=O)N2[C@H](C)CC[C@H]2C(=O)N2CCN(CCO)C3(CC3)C2)SC2=N[C@@](C)(c3ccc(Cl)nc3)[C@@H](c3ccc(Cl)cc3)N21` [Example 10, 2-{7-[(5R)-1-{[(5R,6S)-5-(4-chlorophenyl)-6-(6-chloropyridin-3-yl)-3-isopropyl-6-methyl-5,6-dihydroimidazo[2,1-b][1,3]thiazol-2-yl]carbonyl}-5-methyl-L-prolyl]-4,7-diazaspiro[2.5]oct-4-yl}ethanol] stands at least 50%; under `CC(C)C1=C(C(=O)N2[C@H](C)CC[C@H]2C(=O)N2CCNC3(CC3)C2)SC2=N[C@@](C)(c3ccc(Cl)nc3)[C@@H](c3ccc(Cl)c(F)c3)N21` [Example 11, 7-[(5R)-1-{[(5R,6S)-5-(4-chloro-3-fluorophenyl)-6-(6-chloropyridin-3-yl)-3-isopropyl-6-methyl-5,6-dihydroimidazo[2,1-b] [1,3]thiazol-2-yl]carbonyl}-5-methyl-L-prolyl]-4,7-diazaspiro[2.5]octane], at least 50%. Regarding `CC(C)C1=C(C(=O)N2[C@H](C)CC[C@H]2C(=O)N2CCN(C)C3(CC3)C2)SC2=N[C@@](C)(c3ccc(Cl)nc3)[C@@H](c3ccc(Cl)c(F)c3)N21` [Example 12, 7-[(5R)-1-{[(5R,6S)-5-(4-chloro-3-fluorophenyl)-6-(6-chloropyridin-3-yl)-3-isopropyl-6-methyl-5,6-dihydroimidazo[2,1-b][1,3]thiazol-2-yl]carbonyl}-5-methyl-L-prolyl]-4-methyl-4,7-diazaspiro[2.5]octane], the remaining at 0.5 h is at least 50%. For the compound `CC(C)C1=C(C(=O)N2[C@H](C)CC[C@H]2C(=O)N2CCN(CCO)C3(CC3)C2)SC2=N[C@@](C)(c3ccc(Cl)nc3)[C@@H](c3ccc(Cl)c(F)c3)N21` [Example 13], the remaining at 0.5 h is at least 50%.

For the compound `CCN1CCN(C(=O)[C@@H]2CC[C@@H](C)N2C(=O)C2=C(C(C)C)N3C(=N[C@@](C)(c4ccc(Cl)nc4)[C@H]3c3ccc(Cl)c(F)c3)S2)CC12CC2` [Example 14, 7-[(5R)-1-{[(5R,6S)-5-(4-chloro-3-fluorophenyl)-6-(6-chloropyridin-3-yl)-3-isopropyl-6-methyl-5,6-dihydroimidazo[2,1-b][1,3]thiazol-2-yl]carbonyl}-5-methyl-L-prolyl]-4-ethyl-4,7-diazaspiro[2.5]octane], the remaining at 0.5 h is at least 50%.

With `CC(C)C1=C(C(=O)N2[C@H](C)CC[C@H]2C(=O)N2C[C@@H](C)NC3(CC3)C2)SC2=N[C@@](C)(c3ccc(Cl)cc3)[C@@H](c3ccc(Cl)cc3)N21` [Example 16, (5R)-7-[(5R)-1-{[(5R,6S)-5,6-bis(4-chlorophenyl)-3-isopropyl-6-methyl-5,6-dihydroimidazo[2,1-b][1,3]thiazol-2-yl]carbonyl}-5-methyl-L-prolyl]-5-methyl-4,7-diazaspiro[2.5]octane], the remaining at 0.5 h is at least 50%.

Take `CC(C)C1=C(C(=O)N2[C@H](C)CC[C@H]2C(=O)N2C[C@@H](C)NC3(CC3)C2)SC2=N[C@@](C)(c3ccc(Cl)nc3)[C@@H](c3ccc(Cl)c(F)c3)N21` [Example 17, (5R)-7-[(5R)-1-{ [(5R,6S)-5-(4-chloro-3-fluorophenyl)-6-(6-chloropyridin-3-yl)-3-isopropyl-6-methyl-5,6-dihydroimidazo[2,1-b][1,3]thiazol-2-yl]carbonyl}-5-methyl-L-prolyl]-5-methyl-4,7-diazaspiro[2.5]octane]: the remaining at 0.5 h was at least 50%. Consider `CC(C)C1=C(C(=O)N2[C@H](C)CC[C@H]2C(=O)N2C[C@@H](C)N(C)C3(CC3)C2)SC2=N[C@@](C)(c3ccc(Cl)nc3)[C@@H](c3ccc(Cl)c(F)c3)N21` [Example 18, (5R)-7-[(5R)-1-{[(5R,6S)-5-(4-chloro-3-fluorophenyl)-6-(6-chloropyridin-3-yl)-3-isopropyl-6-methyl-5,6-dihydroimidazo[2,1-b][1,3]thiazol-2-yl]carbonyl}-5-methyl-L-prolyl]-4,5-dimethyl-4,7-diazaspiro[2.5]octane], for which the remaining at 0.5 h is at least 50%. Then `CC(C)C1=C(C(=O)N2[C@H](C)CC[C@H]2C(=O)N2C[C@H](C)NC3(CC3)C2)SC2=N[C@@](C)(c3ccc(Cl)nc3)[C@@H](c3ccc(Cl)c(F)c3)N21` [Example 19, (5S)-7-[(5R)-1-([(5R,6S)-5-(4-chloro-3-fluorophenyl)-6-(6-chloropyridin-3-yl)-3-isopropyl-6-methyl-5,6-dihydroimidazo[2,1-b][1,3]thiazol-2-yl]carbonyl}-5-methyl-L-prolyl]-5-methyl-4,7-diazaspiro[2.5]octane], with at least 50%; and `CC(C)C1=C(C(=O)N2[C@H](C)CC[C@H]2C(=O)N2C[C@H](C)N(C)C3(CC3)C2)SC2=N[C@@](C)(c3ccc(Cl)nc3)[C@@H](c3ccc(Cl)c(F)c3)N21` [Example 20, (5S)-7-[(5R)-1-{[(5R,6S)-5-(4-chloro-3-fluorophenyl)-6-(6-chloropyridin-3-yl)-3-isopropyl-6-methyl-5,6-dihydroimidazo[2,1-b][1,3]thiazol-2-yl]carbonyl}-5-methyl-L-prolyl]-4,5-dimethyl-4,7-diazaspiro[2.5]octane], with at least 50%. Then `CC(C)C1=C(C(=O)N2[C@H](C)CC[C@H]2C(=O)N2CC3(CC3)NC[C@@H]2C)SC2=N[C@@](C)(c3ccc(Cl)nc3)[C@@H](c3ccc(Cl)c(F)c3)N21` [Example 21, (6S)-7-[(5R)-1-{[(5R,6S)-5-(4-chloro-3-fluorophenyl)-6-(6-chloropyridin-3-yl)-3-isopropyl-6-methyl-5,6-dihydroimidazo[2,1-b][1,3]thiazol-2-yl]carbonyl}-5-methyl-L-prolyl]-6-methyl-4,7-diazaspiro[2.5]octane], with at least 50%.
